pIC50: −log10 of the molar value. ≈ marks a conversion by molar mass, not a printed value. Where “and” joins values, the source holds several entries; their conditions need not be identical. Identical values can stand only once.
Legend:
CYP3A = experiment: CYP inhibition; conditions: HLM; for inhibition at 10 µM: human, human liver microsomes, CYP3A inhibition
Protocol: (§2) Cytochrome P450 inhibition was assessed in vitro using human recombinant enzymes in microsomal preparations. […] Enzyme activity was quantified by monitoring formation of substrate-specific metabolites, and percent inhibition was calculated relative to vehicle control.

[1] = Kinetic aqueous solubility; assay type: physicochemical; conditions: phosphate-buffered saline with 2% DMSO, pH 7.4, aqueous buffer, kinetic from dmso stock
Protocol: Kinetic aqueous solubility was determined using a standard LC-UV/MS-based assay. Test compounds were prepared from 10 mM DMSO stock solutions and diluted to a nominal concentration of 200 μM in phosphate-buffered saline (PBS, pH 7.4) containing 2% DMSO. Parallel dilutions in DMSO were used as reference standards. Samples were equilibrated at room temperature for 2 h with shaking, then filtered, and the filtrates were analyzed by LC-UV with mass spectrometric confirmation of the analyte peak. Solubility was determined by comparing the UV peak area of the PBS filtrate with those of the DMSO reference standards. The effective range of the assay was 10–200 μM.

SafetyScreen44 targets = experiment: SafetyScreen44 panel, remaining targets; assay type: binding, human; conditions: 10 μM
Protocol: (§1) Off-target pharmacology was evaluated using the Eurofins SafetyScreen44 in vitro panel. […] Binding assays were performed using radioligand displacement, and enzyme or uptake assays measured inhibition of control activity using validated detection methods (scintillation counting, fluorimetry or photometry). Responses were expressed as percent inhibition of control binding or activity. Based on Eurofins interpretation guidelines, effects ≥50% were considered significant, effects between 25% and 50% weak to moderate, and effects <25% were not considered biologically relevant.

WT E. coli DNA gyrase = target: T1, WT E. coli DNA gyrase (Escherichia coli, UniProt P0AES4+P0AES6); experiment: DNA gyrase inhibition assay; assay type: biochemical
T1 construct: purchased Inspiralis Ltd. (Norwich, UK)
Protocol: Gyrase inhibition was determined through biochemical assay kits from Inspiralis Ltd. (Norwich, UK), according to manufacturer’s instructions, and as described previously. Briefly, 1U of enzyme was incubated with 0.5 μg of relaxed […] DNA in the presence of compound in 1% DMSO for 30 min at 37 °C. A control reaction contained no compound but still contained 1% DMSO. The reactions were stopped through Stop Buffer addition and the DNA separated through addition of chloroform/iso-amyl alcohol (24;1). Samples were run on a 1% agarose gel at 75 V for 2 h, which was then stained with 1 μg/mL ethidium bromide and visualized using a NuGenius gel imager (Syngene). The intensity of the supercoiled DNA band was quantified using Syngene software, and the inhibition of the supercoiling of the DNA by the compounds was calculated.

[2] = Maximum tolerated dose study; conditions: for B.W.: animals N 1-3;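 as to all read-outs here: male ICR mice given oral doses under a stepwise escalation scheme to find the highest tolerated dose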
in vivo = conditions: male, mouse, po
CYP2D6 = CYP2D6 (Homo sapiens, UniProt P10635); experiment: CYP inhibition; conditions: HLM, dextromethorphan substrate, 10 μM
CYP2D6, sequence (P10635 whole entry): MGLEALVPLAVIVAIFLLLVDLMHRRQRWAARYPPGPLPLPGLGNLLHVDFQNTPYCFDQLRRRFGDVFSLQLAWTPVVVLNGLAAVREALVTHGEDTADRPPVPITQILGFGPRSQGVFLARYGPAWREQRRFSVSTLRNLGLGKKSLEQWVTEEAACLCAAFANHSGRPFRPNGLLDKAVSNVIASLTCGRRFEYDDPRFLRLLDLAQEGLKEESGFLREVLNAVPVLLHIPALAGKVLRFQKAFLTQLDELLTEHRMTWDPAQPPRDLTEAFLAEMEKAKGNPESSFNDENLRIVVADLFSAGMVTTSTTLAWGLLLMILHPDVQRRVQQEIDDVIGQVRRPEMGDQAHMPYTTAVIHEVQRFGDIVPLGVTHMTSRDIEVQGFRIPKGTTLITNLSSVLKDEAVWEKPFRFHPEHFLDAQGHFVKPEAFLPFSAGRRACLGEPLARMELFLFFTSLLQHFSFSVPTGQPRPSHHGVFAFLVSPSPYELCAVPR
Protocol: as §2

mu (MOP) (h) = target: T2, mu (MOP) (h) (Homo sapiens, UniProt P35372); experiment: SafetyScreen44; conditions: agonist radioligand, specific binding, 1.0E-05 M
T2 construct: purchased Eurofins (SafetyScreen44)
T2 sequence (P35372 whole entry): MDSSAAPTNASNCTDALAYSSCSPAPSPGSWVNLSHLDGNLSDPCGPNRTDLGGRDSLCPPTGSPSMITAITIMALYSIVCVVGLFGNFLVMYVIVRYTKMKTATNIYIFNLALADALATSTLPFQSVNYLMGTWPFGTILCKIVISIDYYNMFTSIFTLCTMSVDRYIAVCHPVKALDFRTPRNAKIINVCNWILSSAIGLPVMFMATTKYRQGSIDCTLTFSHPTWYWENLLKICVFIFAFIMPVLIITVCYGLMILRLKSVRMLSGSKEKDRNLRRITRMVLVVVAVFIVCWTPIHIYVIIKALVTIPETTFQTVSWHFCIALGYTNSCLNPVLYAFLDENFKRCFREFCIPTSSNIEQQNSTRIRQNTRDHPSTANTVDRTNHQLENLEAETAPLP
Protocol: as §1

M2 (h) = target: T3, M2 (h) (Homo sapiens, UniProt P08172); experiment: SafetyScreen44; conditions: antagonist radioligand, specific binding, 1.0E-05 M
T3 construct: purchased Eurofins (SafetyScreen44)
T3 sequence (P08172 whole entry): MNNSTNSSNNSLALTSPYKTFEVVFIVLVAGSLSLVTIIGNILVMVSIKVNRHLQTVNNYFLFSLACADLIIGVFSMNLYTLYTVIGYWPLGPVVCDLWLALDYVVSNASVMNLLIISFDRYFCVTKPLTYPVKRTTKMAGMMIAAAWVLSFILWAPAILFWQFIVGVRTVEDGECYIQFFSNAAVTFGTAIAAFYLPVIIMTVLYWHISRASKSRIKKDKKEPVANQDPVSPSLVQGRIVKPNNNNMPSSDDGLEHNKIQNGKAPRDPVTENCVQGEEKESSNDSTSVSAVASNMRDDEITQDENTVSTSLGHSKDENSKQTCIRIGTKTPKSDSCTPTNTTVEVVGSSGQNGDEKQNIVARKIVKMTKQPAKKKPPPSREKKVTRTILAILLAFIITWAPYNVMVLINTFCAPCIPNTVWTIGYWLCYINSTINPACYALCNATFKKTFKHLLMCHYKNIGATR
Protocol: as §1

[3] = target: T4, N neuronal alpha 4beta 2 (h) (Homo sapiens, UniProt P17787+P43681); experiment: SafetyScreen44; conditions: agonist radioligand, specific binding, 1.0E-05 M
T4 construct: purchased Eurofins (SafetyScreen44)
Protocol: as §1

KV channel = experiment: SafetyScreen44; conditions: antagonist radioligand, specific binding, 1.0E-05 M
Protocol: as §1

A2A (h) = target: T5, A2A (h) (Homo sapiens, UniProt P29274); experiment: SafetyScreen44; conditions: agonist radioligand, specific binding, 1.0E-05 M
T5 construct: purchased Eurofins (SafetyScreen44)
T5 sequence (P29274 whole entry): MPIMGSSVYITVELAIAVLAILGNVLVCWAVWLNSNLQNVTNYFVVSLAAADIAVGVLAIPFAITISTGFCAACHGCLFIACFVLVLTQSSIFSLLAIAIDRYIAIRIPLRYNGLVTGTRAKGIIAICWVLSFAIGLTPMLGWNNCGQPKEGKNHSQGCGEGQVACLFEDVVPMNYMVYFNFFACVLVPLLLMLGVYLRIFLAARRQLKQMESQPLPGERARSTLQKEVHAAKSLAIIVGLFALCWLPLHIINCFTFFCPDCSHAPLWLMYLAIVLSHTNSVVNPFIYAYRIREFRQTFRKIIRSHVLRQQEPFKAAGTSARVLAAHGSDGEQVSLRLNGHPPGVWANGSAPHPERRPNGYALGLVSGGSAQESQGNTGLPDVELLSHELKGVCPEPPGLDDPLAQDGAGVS
Protocol: as §1

H2 (h) = target: T6, H2 (h) (Homo sapiens, UniProt P25021); experiment: SafetyScreen44; conditions: antagonist radioligand, specific binding, 1.0E-05 M
T6 construct: purchased Eurofins (SafetyScreen44)
Protocol: as §1

5-HT1A (h) = target: T7, 5-HT1A (h) (Homo sapiens, UniProt P08908); experiment: SafetyScreen44; conditions: agonist radioligand, specific binding, 1.0E-05 M
T7 construct: purchased Eurofins (SafetyScreen44)
T7 sequence (P08908 whole entry): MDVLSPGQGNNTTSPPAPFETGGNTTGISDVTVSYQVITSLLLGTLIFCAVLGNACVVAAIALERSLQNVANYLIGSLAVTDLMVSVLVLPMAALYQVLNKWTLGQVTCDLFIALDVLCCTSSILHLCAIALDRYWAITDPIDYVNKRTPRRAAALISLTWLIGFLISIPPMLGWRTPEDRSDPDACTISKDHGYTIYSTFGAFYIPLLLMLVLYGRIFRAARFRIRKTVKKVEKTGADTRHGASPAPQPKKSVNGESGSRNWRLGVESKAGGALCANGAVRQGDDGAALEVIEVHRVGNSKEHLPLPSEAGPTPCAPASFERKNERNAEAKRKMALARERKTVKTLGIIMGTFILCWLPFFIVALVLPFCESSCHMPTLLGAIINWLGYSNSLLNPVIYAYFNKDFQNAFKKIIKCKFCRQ
Protocol: as §1

[4] = target: T8, Potassium Channel hERG (human) (Homo sapiens, UniProt Q12809); experiment: SafetyScreen44; conditions: [3H] Dofetilide, specific binding, 1.0E-05 M
T8 construct: purchased Eurofins (SafetyScreen44)
T8 sequence (Q12809 whole entry): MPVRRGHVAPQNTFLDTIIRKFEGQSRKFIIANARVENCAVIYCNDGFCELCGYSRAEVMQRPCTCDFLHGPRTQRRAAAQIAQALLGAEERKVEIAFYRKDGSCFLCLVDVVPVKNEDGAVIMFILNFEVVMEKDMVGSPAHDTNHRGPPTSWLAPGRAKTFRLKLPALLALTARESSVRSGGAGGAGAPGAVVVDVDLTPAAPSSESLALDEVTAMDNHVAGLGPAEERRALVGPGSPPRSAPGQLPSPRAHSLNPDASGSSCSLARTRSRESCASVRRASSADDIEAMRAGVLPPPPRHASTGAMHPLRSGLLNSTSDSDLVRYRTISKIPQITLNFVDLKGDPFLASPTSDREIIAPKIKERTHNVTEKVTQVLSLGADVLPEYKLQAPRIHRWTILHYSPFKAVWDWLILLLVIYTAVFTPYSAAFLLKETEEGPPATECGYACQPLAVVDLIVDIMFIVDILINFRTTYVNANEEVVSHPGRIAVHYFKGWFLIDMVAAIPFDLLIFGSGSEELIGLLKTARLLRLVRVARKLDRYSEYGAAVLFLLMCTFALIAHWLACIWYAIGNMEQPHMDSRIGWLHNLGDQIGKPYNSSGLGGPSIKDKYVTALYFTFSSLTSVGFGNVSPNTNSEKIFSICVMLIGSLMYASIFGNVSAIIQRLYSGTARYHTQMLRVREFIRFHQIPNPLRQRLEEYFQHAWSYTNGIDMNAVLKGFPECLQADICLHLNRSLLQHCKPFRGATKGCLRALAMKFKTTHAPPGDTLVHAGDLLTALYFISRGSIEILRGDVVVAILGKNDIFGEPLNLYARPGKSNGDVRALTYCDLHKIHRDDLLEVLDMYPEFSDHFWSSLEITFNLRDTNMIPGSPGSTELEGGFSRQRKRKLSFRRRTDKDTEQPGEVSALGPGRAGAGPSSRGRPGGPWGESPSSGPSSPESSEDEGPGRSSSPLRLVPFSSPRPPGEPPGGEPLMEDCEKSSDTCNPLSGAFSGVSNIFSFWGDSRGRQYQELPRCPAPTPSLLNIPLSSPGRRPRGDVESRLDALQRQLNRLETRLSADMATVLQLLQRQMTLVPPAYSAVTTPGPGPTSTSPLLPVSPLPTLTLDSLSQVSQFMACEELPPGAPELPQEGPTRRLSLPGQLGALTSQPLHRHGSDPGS
Protocol: as §1

CB1 (h) = target: T9, CB1 (h) (Homo sapiens, UniProt P21554); experiment: SafetyScreen44; conditions: agonist radioligand, specific binding, 1.0E-05 M
T9 construct: purchased Eurofins (SafetyScreen44 panel) assay 36
Protocol: as §1

5-HT2A (h) = target: T10, 5-HT2A (h) (Homo sapiens, UniProt P28223); experiment: SafetyScreen44; conditions: agonist radioligand, specific binding, 1.0E-05 M
T10 construct: purchased Eurofins (SafetyScreen44)
Protocol: as §1

[5] = target: T11, norepinephrine transporter (h) (Homo sapiens, UniProt P23975); experiment: SafetyScreen44; conditions: antagonist radioligand, specific binding, 1.0E-05 M
T11 construct: purchased Eurofins (SafetyScreen44)
T11 sequence (P23975 whole entry): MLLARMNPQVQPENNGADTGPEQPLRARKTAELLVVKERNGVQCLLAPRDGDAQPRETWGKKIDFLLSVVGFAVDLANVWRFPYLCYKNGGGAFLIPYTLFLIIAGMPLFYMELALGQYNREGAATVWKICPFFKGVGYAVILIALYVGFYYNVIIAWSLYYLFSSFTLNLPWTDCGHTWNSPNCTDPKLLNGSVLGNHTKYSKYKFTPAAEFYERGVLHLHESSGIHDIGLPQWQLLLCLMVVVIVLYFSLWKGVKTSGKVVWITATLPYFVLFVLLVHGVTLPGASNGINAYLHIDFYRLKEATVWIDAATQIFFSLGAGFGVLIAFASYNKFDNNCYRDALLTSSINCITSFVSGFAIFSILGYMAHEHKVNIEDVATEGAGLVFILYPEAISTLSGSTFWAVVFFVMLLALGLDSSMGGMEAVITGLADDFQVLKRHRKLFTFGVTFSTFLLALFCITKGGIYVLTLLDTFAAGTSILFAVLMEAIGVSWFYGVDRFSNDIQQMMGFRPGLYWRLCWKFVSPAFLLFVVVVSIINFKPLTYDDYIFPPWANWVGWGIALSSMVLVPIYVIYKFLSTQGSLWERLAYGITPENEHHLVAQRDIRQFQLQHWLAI
Protocol: as §1

V1a (h) = target: T12, V1a (h) (Homo sapiens, UniProt P37288); experiment: SafetyScreen44; conditions: agonist radioligand, specific binding, 1.0E-05 M
T12 construct: purchased Eurofins (SafetyScreen44)
T12 sequence (P37288 whole entry): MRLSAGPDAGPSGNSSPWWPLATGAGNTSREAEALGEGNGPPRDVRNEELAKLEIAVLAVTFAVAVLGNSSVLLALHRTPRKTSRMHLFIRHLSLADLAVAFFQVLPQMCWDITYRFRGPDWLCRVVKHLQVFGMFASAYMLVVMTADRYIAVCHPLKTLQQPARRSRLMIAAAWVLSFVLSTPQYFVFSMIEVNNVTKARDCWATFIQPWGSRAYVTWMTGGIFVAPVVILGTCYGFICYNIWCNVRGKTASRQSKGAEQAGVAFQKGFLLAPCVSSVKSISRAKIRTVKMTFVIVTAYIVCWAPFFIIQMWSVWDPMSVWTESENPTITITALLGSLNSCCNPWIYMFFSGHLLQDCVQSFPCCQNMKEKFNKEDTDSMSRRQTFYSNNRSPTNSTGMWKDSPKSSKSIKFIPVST
Protocol: as §1

dopamine transporter (h) = target: T13, dopamine transporter (h) (Homo sapiens, UniProt Q01959); experiment: SafetyScreen44; conditions: antagonist radioligand, specific binding, 1.0E-05 M
T13 construct: purchased Eurofins (SafetyScreen44)
Protocol: as §1

beta 2 (h) = target: T14, beta 2 (h) (Homo sapiens, UniProt P07550); experiment: SafetyScreen44; conditions: antagonist radioligand, specific binding, 1.0E-05 M
T14 construct: purchased Eurofins (SafetyScreen44)
Protocol: as §1

H1 (h) = target: T15, H1 (h) (Homo sapiens, UniProt P35367); experiment: SafetyScreen44; conditions: antagonist radioligand, specific binding, 1.0E-05 M
T15 construct: purchased Eurofins (SafetyScreen44)
Protocol: as §1

[6] = system: Ca2+ channel (L, dihydropyridine site); experiment: SafetyScreen44; conditions: antagonist radioligand, specific binding, 1.0E-05 M
Protocol: as §1

BZD (central) = experiment: SafetyScreen44; conditions: agonist radioligand, specific binding, 1.0E-05 M
Protocol: as §1

CCK1 (CCKA) (h) = target: T16, CCK1 (CCKA) (h) (Homo sapiens, UniProt P32238); experiment: SafetyScreen44; conditions: agonist radioligand, specific binding, 1.0E-05 M
T16 construct: purchased Eurofins (SafetyScreen44)
T16 sequence (P32238 whole entry): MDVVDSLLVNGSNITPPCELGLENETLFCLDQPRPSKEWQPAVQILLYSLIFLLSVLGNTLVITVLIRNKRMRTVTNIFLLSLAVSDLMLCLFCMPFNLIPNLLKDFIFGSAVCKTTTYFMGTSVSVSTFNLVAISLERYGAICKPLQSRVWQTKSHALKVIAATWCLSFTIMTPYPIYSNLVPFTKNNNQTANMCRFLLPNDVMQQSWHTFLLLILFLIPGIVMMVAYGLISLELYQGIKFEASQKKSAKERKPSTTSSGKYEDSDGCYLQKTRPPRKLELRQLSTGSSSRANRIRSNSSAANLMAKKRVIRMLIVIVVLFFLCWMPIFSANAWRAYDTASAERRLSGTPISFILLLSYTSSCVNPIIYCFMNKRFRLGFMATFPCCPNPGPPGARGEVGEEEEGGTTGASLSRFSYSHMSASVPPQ
Protocol: as §1

MRSA ATCC 33591 = experiment: Neutropenic murine thigh infection model; conditions: oral 50 mg/kg TID at 2, 8, and 14 h postinfection; at 26 h
[7] = probe midazolam, midazolam substrate
[8] = probe testosterone, testosterone substrate
[9] = PO 100 mg/kg, 72 hrs after final dose, 100 mg/kg
[10] = PO 100 mg/kg, Pre-dose, 100 mg/kg
[11] = PO 200 mg/kg, 72 hrs after final dose, 200 mg/kg
[12] = PO 200 mg/kg, Pre-dose, 200 mg/kg
[13] = PO 400 mg/kg, 72 hrs after final dose, 400 mg/kg
[14] = PO 400 mg/kg, Pre-dose, 400 mg/kg

SMILES: C[C@H]1COc2c(N3CC[C@@H](Nc4ncccn4)C3)c(F)cc3c(=O)c(C(=O)O)cn1c23 [Compound 46, (S)-9-Fluoro-3-methyl-7-oxo-10-((R)-3-(pyrimidin-2-ylamino)pyrrolidin-1-yl)-2,3-dihydro-7H-[1,4]oxazino[2,3,4-ij]quinoline-6-carboxylic acid]
- inhibition at 10 µM (CYP3A; [7]): 25.2%
- inhibition at 10 µM (CYP3A; [8]): 6.5%
- solubility at 2 h [1]: 183 µM (≈ 77.9 µg/mL)
- inhibition, all other / remaining targets (SafetyScreen44 targets): < 25%
- pIC50 (WT E. coli DNA gyrase): 6.17
- B.W. [2, 9]: 25 and 27
- B.W. [2, 10]: 24 and 25
- B.W. [2, 11]: 26 and 27
- B.W. [2, 12]: 24 and 23
- B.W. [2, 13]: 26 and 22 and 24
- B.W. [2, 14]: 21 and 20 and 22
- MTD at 72 h (in vivo; ICR): ≥ 400 mg/kg
- CYP2D6 inhibition (CYP2D6): 0.0%
- % Inhibition (mu (MOP) (h)): 6.535%
- % Inhibition (M2 (h)): 1.066%
- inhibition at 10 µM [3]: -41.8%
- % Inhibition (KV channel): -4.644%
- % Inhibition (A2A (h)): 53.628% and 53.6%
- % Inhibition (H2 (h)): -40.1709%
- % Inhibition (5-HT1A (h)): -3.77%
- % Inhibition [4]: -0.2461%
- % Inhibition (CB1 (h)): 1.857%
- % Inhibition (5-HT2A (h)): -8.881%
- % Inhibition [5]: -6.471%
- % Inhibition (V1a (h)): -12.5662%
- % Inhibition (dopamine transporter (h)): 10.0257%
- % Inhibition (beta 2 (h)): 11.3086%
- % Inhibition (H1 (h)): 5.564%
- % Inhibition [6]: 6.049%
- % Inhibition (BZD (central)): -44.8289%
- % Inhibition (CCK1 (CCKA) (h)): -2.038%

SMILES: Cc1cc(C)nc(N[C@@H]2CCN(c3c(F)cc4c(=O)c(C(=O)O)cn5c4c3OC[C@@H]5C)C2)n1 [Compound 50, (S)-10-((R)-3-((4,6-Dimethylpyrimidin-2-yl)amino)pyrrolidin-1-yl)-9-fluoro-3-methyl-7-oxo-2,3-dihydro-7H-[1,4]oxazino[2,3,4-ij]quinoline-6-carboxylic acid]
- CYP3A inhibition (CYP3A; midazolam substrate, 10 μM): 10.5%
- inhibition at 10 µM (CYP3A; [7]): 10.5%
- inhibition at 10 µM (CYP3A; [8]): 6.32%
- solubility at 2 h [1]: 156 µM (≈ 70.6 µg/mL)
- inhibition, all other / remaining targets (SafetyScreen44 targets): < 25%
- Response (death/test) ([2]; PO 100 mg/kg, 1 hr after 1st dosing): 0/3
- Response (death/test) ([2]; PO 100 mg/kg, 1 hr after 2nd dosing): 0/3
- Response (death/test) ([2]; PO 100 mg/kg, 1 hr after 3rd dosing): 0/3
- Response (death/test) ([2]; PO 100 mg/kg, 2 hrs after 3rd dosing): 0/3
- Response (death/test) ([2]; PO 100 mg/kg, 6 hrs after 1st dosing): 0/3
- Response (death/test) ([2]; PO 100 mg/kg, 6 hrs after 2nd dosing): 0/3
- Response (death/test) ([2]; PO 100 mg/kg, 24 hrs after 3rd dosing): 0/3
- Response (death/test) ([2]; PO 100 mg/kg, 48 hrs after 3rd dosing): 0/3
- Response (death/test) ([2]; PO 100 mg/kg, 72 hrs after 3rd dosing): 0/3
- B.W. [2, 9]: 24 and 25
- B.W. [2, 10]: 24 and 23
- Response (death/test) ([2]; PO 200 mg/kg, 1 hr after 1st dosing): 0/3
- Response (death/test) ([2]; PO 200 mg/kg, 1 hr after 2nd dosing): 0/3
- Response (death/test) ([2]; PO 200 mg/kg, 1 hr after 3rd dosing): 0/3
- Response (death/test) ([2]; PO 200 mg/kg, 2 hrs after 3rd dosing): 0/3
- Response (death/test) ([2]; PO 200 mg/kg, 6 hrs after 1st dosing): 0/3
- Response (death/test) ([2]; PO 200 mg/kg, 6 hrs after 2nd dosing): 0/3
- Response (death/test) ([2]; PO 200 mg/kg, 24 hrs after 3rd dosing): 0/3
- Response (death/test) ([2]; PO 200 mg/kg, 48 hrs after 3rd dosing): 0/3
- Response (death/test) ([2]; PO 200 mg/kg, 72 hrs after 3rd dosing): 0/3
- B.W. [2, 11]: 25 and 28
- B.W. [2, 12]: 23 and 24
- Response (death/test) ([2]; PO 400 mg/kg, 1 hr after 1st dosing): 0/3
- Response (death/test) ([2]; PO 400 mg/kg, 1 hr after 2nd dosing): 0/3
- Response (death/test) ([2]; PO 400 mg/kg, 1 hr after 3rd dosing): 0/3
- Response (death/test) ([2]; PO 400 mg/kg, 2 hrs after 3rd dosing): 0/3
- Response (death/test) ([2]; PO 400 mg/kg, 6 hrs after 1st dosing): 0/3
- Response (death/test) ([2]; PO 400 mg/kg, 6 hrs after 2nd dosing): 0/3
- Response (death/test) ([2]; PO 400 mg/kg, 24 hrs after 3rd dosing): 0/3
- Response (death/test) ([2]; PO 400 mg/kg, 48 hrs after 3rd dosing): 0/3
- Response (death/test) ([2]; PO 400 mg/kg, 72 hrs after 3rd dosing): 0/3
- B.W. [2, 13]: 25 and 23
- B.W. [2, 14]: 20 and 21
- MTD at 72 h (in vivo): ≥ 400 mg/kg
- bacterial counts in thigh (MRSA ATCC 33591): 4.6 log10 CFU/g
- reduction relative to the vehicle (MRSA ATCC 33591): 4.1 log10 CFU/g
- CYP2D6 inhibition (CYP2D6): 3.804% and < 10%
- inhibition at 10 µM (mu (MOP) (h)): 0.499%
- inhibition at 10 µM (M2 (h)): 62.8%
- inhibition at 10 µM [3]: 0.422%
- % Inhibition (KV channel): 3.113%
- % Inhibition (A2A (h)): 82.8099% and 82.8%
- inhibition at 10 µM (H2 (h)): -9.63%
- inhibition at 10 µM (5-HT1A (h)): -2.72%
- % Inhibition [4]: -1.132%
- inhibition at 10 µM (CB1 (h)): -8.28%
- inhibition at 10 µM (5-HT2A (h)): 41.5%
- inhibition at 10 µM [5]: 2.06%
- inhibition at 10 µM (V1a (h)): 9.53%
- inhibition at 10 µM (dopamine transporter (h)): 22.6%
- inhibition at 10 µM (beta 2 (h)): -4.15%
- inhibition at 10 µM (H1 (h)): 5.57%
- % Inhibition [6]: -7.1517%
- % Inhibition (BZD (central)): 22.3569%
- inhibition at 10 µM (CCK1 (CCKA) (h)): -39.6%
